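Five concentrations, 48 hours, 96-well plates. Abbreviation: GI50, concentration required for 50% inhibition of growth. Definition used: TGI = concentration required for complete inhibition of growth.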
System: MDA-MB-468 breast
Test: DTP human tumour cell line panel, 48 h

Row | Compound | GI50 [nM] | TGI [nM]
1 | CN1CCc2nc3sc(C(N)=O)c(N)c3c(-c3cccs3)c2C1 | 1750 | 4860
2 | COc1ccc2c(-c3ccnc(Nc4cccc(OC(F)(F)F)c4)n3)cnn2n1 | 1260 | 4690
3 | COc1cc(C(=O)Nc2cc(O)c(CC=C(C)C)c(O)c2)cc2c1O[C@]1(C)CC[C@@H](O)C(C)(C)[C@H]1C2 | 648 | 32900
4 | O=C1C(OCCOc2ccccc2)=C(OCCOc2ccccc2)C(=O)c2ccccc21 | 9920 | > 100000
5 | Oc1c(-c2cc(C(F)(F)F)[nH]n2)cc(Cl)c(OCc2ccc(Cl)cc2)c1-c1ccc(Cl)c(C(F)(F)F)c1 | 208 | 1660
6 | Cc1[nH]c(-c2cc(N)ccc2Cl)c2c1C(=O)CCCC2 | 1900 | 9460
7 | Oc1cccc2c1NCCC2 | 1830 | 8490
8 | O=Nc1c(-c2c(O)[nH]c3ncccc23)[nH]c2ccccc12 | 4120 | > 100000
9 | COc1cc(C(=O)c2cc(C)c3[nH]c4ccc(O)cc4c3c2C)cc(OC)c1OC | < 15.7 | 1060
10 | N#CCCNc1nonc1-c1nc2ccccc2n1CC(=O)c1ccc(NC(=O)[C@@H](N)CCCCN)cc1 | 23.6 | 
11 | CCOC(=O)c1c(NC(=O)c2cccc(C(F)(F)F)c2)sc2c3c(ccc12)OCN(C)C3 | 1520 | 2970
12 | CC1C=CC(OC(=O)C(C)(O)CCC(O)(C(=O)OC2CC(O)C(C(C)C)CC2(C)O)C(C)C)(C(C)C)CC1 (stereo unspecified) | 360 | 1220
13 | O=c1c2cc(F)ccc2sc2c(NCCCNCCO)nc3ccccc3c12 | 1090 | 2430
14 | CN1CCN(CCCCCN=c2cc3c(=O)n(CCCCCN4CCN(C)CC4)c(=O)c4c(NCCCCCN5CCN(C)CC5)cc5c(O)n(CCCCCN6CCN(C)CC6)c(=O)c2c5c4-3)CC1 | 2260 | 6310
15 | CC1c2ccccc2CCN1c1ccc(CO)c(Cl)c1 (stereo unspecified) | 15.1 | 39.3
16 | COc1cc2c(cc1F)C(c1ccccc1Cl)=Nc1c(n[nH]c1C)N2 | 342 | 3730
17 | C[C@@H]1Cc2cc(O)ccc2[C@H]2CC[C@]3(C)/C(=C/COCCN(C)C)CC[C@H]3[C@H]12 (tested in a mixture with another compound) | 1070 | 3200
18 | C[n+]1c2ccccc2nc2c(N)cc(N)cc21 | 1180 | 4980
19 | COc1ccc(Nc2ccnc(N3CCN(c4ccnc5cc(Cl)ccc45)CC3)n2)cc1 | 1500 | > 100000
20 | COc1cccc(Oc2ccccc2NC(=O)CNC(=O)c2cccc3ccccc23)c1 | 331 | > 25000
21 | Cc1ccncc1C(N)=O | > 100000 | > 100000

— PubChem BioAssay (NCI)
